Measurements published in PubChem BioAssay AID2060624 (Molecular Pharmacology Branch, DTP, NCI, 2025).

System: 217524-143-R1-J4-PDC spheroids with HUVEC/MSC, viability
Assay: Anticancer human tumor 217524-143-R1-J4-PDC patient-derived pancreatic carcinoma cell line growth inhibition [CLK]
Conditions: for IC50: curve of first compound; for viability, T/C: stronger effect = lower value
Outline: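 Multi-cell-type spheroids combined patient-derived tumor cells with HUVEC endothelial cells and human mesenchymal stem cells. Paired agents were dosed in half-log steps down from about clinical Cmax, or from 10 microM where Cmax was unknown.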

[1] = second compound 0.0316 µM, first compound 0.0316 µM
[2] = second compound 0.0316 µM, first compound 0.1 µM
[3] = second compound 0.0316 µM, first compound 0.316 µM
[4] = second compound 0.0316 µM, first compound 1 µM
[5] = second compound 0.0316 µM, first compound 3.16 µM
[6] = second compound 0.0316 µM, first compound 10 µM
[7] = second compound 0.1 µM, first compound 0.0316 µM
[8] = second compound 0.1 µM, first compound 0.1 µM
[9] = second compound 0.1 µM, first compound 0.316 µM
[10] = second compound 0.1 µM, first compound 1 µM
[11] = second compound 0.1 µM, first compound 3.16 µM
[12] = second compound 0.1 µM, first compound 10 µM
[13] = second compound 0.316 µM, first compound 0.0316 µM
[14] = second compound 0.316 µM, first compound 0.1 µM
[15] = second compound 0.316 µM, first compound 0.316 µM
[16] = second compound 0.316 µM, first compound 1 µM
[17] = second compound 0.316 µM, first compound 3.16 µM
[18] = second compound 0.316 µM, first compound 10 µM
[19] = second compound 1 µM, first compound 0.0316 µM
[20] = second compound 1 µM, first compound 0.1 µM
[21] = second compound 1 µM, first compound 0.316 µM
[22] = second compound 1 µM, first compound 1 µM
[23] = second compound 1 µM, first compound 3.16 µM
[24] = second compound 1 µM, first compound 10 µM
[25] = second compound 3.16 µM, first compound 0.0316 µM
[26] = second compound 3.16 µM, first compound 0.1 µM
[27] = second compound 3.16 µM, first compound 0.316 µM
[28] = second compound 3.16 µM, first compound 1 µM
[29] = second compound 3.16 µM, first compound 3.16 µM
[30] = second compound 3.16 µM, first compound 10 µM
[31] = second compound 10 µM, first compound 0.0316 µM
[32] = second compound 10 µM, first compound 0.1 µM
[33] = second compound 10 µM, first compound 0.316 µM
[34] = second compound 10 µM, first compound 1 µM
[35] = second compound 10 µM, first compound 3.16 µM
[36] = second compound 10 µM, first compound 10 µM
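Also: spheroids exposed to agents for seven days before reading.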
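For viability, T/C in this document: 100% = DMSO vehicle control viability.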

`CC(C)CC(NC(=O)C(Cc1ccccc1)NC(=O)c1cnccn1)B(O)O` (stereo unspecified) + CN1CCN(c2cc(C(=O)Nc3cc4cc(-c5cnn(C)c5)ccc4cn3)ccn2)CC1 was tested, and the IC50 (second compound 0.0316 µM) was 3.03 nM, the IC50 (second compound 0.1 µM) was 2.29 nM and the IC50 (second compound 0.316 µM) was less than 0.949 nM. The IC50 (second compound 1 µM) was less than 0.949 nM, the IC50 (second compound 3.16 µM) was less than 0.949 nM and the IC50 (second compound 10 µM) was less than 0.949 nM. For the same compound, the viability, T/C (second compound 0.0316 µM, first compound 0.000949 µM) was 89.7%, the viability, T/C (second compound 0.0316 µM, first compound 0.003 µM) was 49.9% and the viability, T/C (second compound 0.0316 µM, first compound 0.00949 µM) was 22.4%. It also gave a viability, T/C (second compound 0.0316 µM, first compound 0.03 µM) of 6.55%, a viability, T/C (second compound 0.0316 µM, first compound 0.0949 µM) of 5.49% and a viability, T/C (second compound 0.0316 µM, first compound 0.3 µM) of 2.12%. It also gave a viability, T/C (second compound 0.1 µM, first compound 0.000949 µM) of 58.3%, a viability, T/C (second compound 0.1 µM, first compound 0.003 µM) of 47.5% and a viability, T/C (second compound 0.1 µM, first compound 0.00949 µM) of 14.4%. The viability, T/C (second compound 0.1 µM, first compound 0.03 µM) was 5.38%, the viability, T/C (second compound 0.1 µM, first compound 0.0949 µM) was 3.86% and the viability, T/C (second compound 0.1 µM, first compound 0.3 µM) was 2.25%. The viability, T/C (second compound 0.316 µM, first compound 0.000949 µM) was 25%, the viability, T/C (second compound 0.316 µM, first compound 0.003 µM) was 24% and the viability, T/C (second compound 0.316 µM, first compound 0.00949 µM) was 3.44%. The viability, T/C (second compound 0.316 µM, first compound 0.03 µM) was 1.85%, the viability, T/C (second compound 0.316 µM, first compound 0.0949 µM) was 1.33% and the viability, T/C (second compound 0.316 µM, first compound 0.3 µM) was 0.89%. For the same compound, the viability, T/C (second compound 1 µM, first compound 0.000949 µM) was 1.64%, the viability, T/C (second compound 1 µM, first compound 0.003 µM) was 0.62% and the viability, T/C (second compound 1 µM, first compound 0.00949 µM) was 0.77%. The viability, T/C (second compound 1 µM, first compound 0.03 µM) was 0.46%, the viability, T/C (second compound 1 µM, first compound 0.0949 µM) was 0.4% and the viability, T/C (second compound 1 µM, first compound 0.3 µM) was 0.42%. The viability, T/C (second compound 3.16 µM, first compound 0.000949 µM) was 0.67%, the viability, T/C (second compound 3.16 µM, first compound 0.003 µM) was 0.98% and the viability, T/C (second compound 3.16 µM, first compound 0.00949 µM) was 2.38%. It also gave a viability, T/C (second compound 3.16 µM, first compound 0.03 µM) of 1.54%, a viability, T/C (second compound 3.16 µM, first compound 0.0949 µM) of 0.63% and a viability, T/C (second compound 3.16 µM, first compound 0.3 µM) of 0.66%. The viability, T/C (second compound 10 µM, first compound 0.000949 µM) was 0.3%, the viability, T/C (second compound 10 µM, first compound 0.003 µM) was 0.19% and the viability, T/C (second compound 10 µM, first compound 0.00949 µM) was 0.47%. The viability, T/C (second compound 10 µM, first compound 0.03 µM) was 0.32%, the viability, T/C (second compound 10 µM, first compound 0.0949 µM) was 0.23% and the viability, T/C (second compound 10 µM, first compound 0.3 µM) was 0.22%.
For `CC1COCCN1c1cc(C2(S(C)(=N)=O)CC2)nc(-c2ccnc3[nH]ccc23)n1` (stereo unspecified) + CN1CCN(c2cc(C(=O)Nc3cc4cc(-c5cnn(C)c5)ccc4cn3)ccn2)CC1, the IC50 (second compound 0.0316 µM) was 1430 nM, the IC50 (second compound 0.1 µM) was 342 nM and the IC50 (second compound 0.316 µM) was less than 31.6 nM. It also gave an IC50 (second compound 1 µM) of less than 31.6 nM, an IC50 (second compound 3.16 µM) of less than 31.6 nM and an IC50 (second compound 10 µM) of less than 31.6 nM. It also gave a viability, T/C [1] of 93.1%, a viability, T/C [2] of 79.7% and a viability, T/C [3] of 63.9%. For the same compound, the viability, T/C [4] was 66.3%, the viability, T/C [5] was 32.9% and the viability, T/C [6] was 18.6%. It also gave a viability, T/C [7] of 56.7%, a viability, T/C [8] of 67.3% and a viability, T/C [9] of 43.1%. For the same compound, the viability, T/C [10] was 42.3%, the viability, T/C [11] was 29.1% and the viability, T/C [12] was 16.4%. The viability, T/C [13] was 22.1%, the viability, T/C [14] was 19.2% and the viability, T/C [15] was 17.1%. For the same compound, the viability, T/C [16] was 16.1%, the viability, T/C [17] was 12.3% and the viability, T/C [18] was 11.4%. For the same compound, the viability, T/C [19] was 1.72%, the viability, T/C [20] was 1.95% and the viability, T/C [21] was 2.1%. It also gave a viability, T/C [22] of 1.89%, a viability, T/C [23] of 1.87% and a viability, T/C [24] of 1.22%. The viability, T/C [25] was 0.77%, the viability, T/C [26] was 0.42% and the viability, T/C [27] was 0.98%. It also gave a viability, T/C [28] of 0.65%, a viability, T/C [29] of 0.84% and a viability, T/C [30] of 1.13%. For the same compound, the viability, T/C [31] was 0.21%, the viability, T/C [32] was 0.17% and the viability, T/C [33] was 0.25%. It also gave a viability, T/C [34] of 0.29%, a viability, T/C [35] of 0.29% and a viability, T/C [36] of 0.25%.
`O=C(c1cc(Cc2n[nH]c(=O)c3ccccc23)ccc1F)N1CCN(C(=O)C2CC2)CC1` + CN1CCN(c2cc(C(=O)Nc3cc4cc(-c5cnn(C)c5)ccc4cn3)ccn2)CC1 was tested, and the IC50 (second compound 0.0316 µM) was greater than 10000 nM, the IC50 (second compound 0.1 µM) was 537 nM and the IC50 (second compound 0.316 µM) was less than 31.6 nM. For the same compound, the IC50 (second compound 1 µM) was less than 31.6 nM, the IC50 (second compound 3.16 µM) was less than 31.6 nM and the IC50 (second compound 10 µM) was less than 31.6 nM. It also gave a viability, T/C [1] of 76.5%, a viability, T/C [2] of 91.6% and a viability, T/C [3] of 71.2%. For the same compound, the viability, T/C [4] was 90.3%, the viability, T/C [5] was 68.5% and the viability, T/C [6] was 64.3%. For the same compound, the viability, T/C [7] was 51.5%, the viability, T/C [8] was 46.6% and the viability, T/C [9] was 49.7%. It also gave a viability, T/C [10] of 58.5%, a viability, T/C [11] of 49.8% and a viability, T/C [12] of 43.5%. It also gave a viability, T/C [13] of 24.3%, a viability, T/C [14] of 22.4% and a viability, T/C [15] of 20%. The viability, T/C [16] was 18%, the viability, T/C [17] was 21.4% and the viability, T/C [18] was 17.5%. It also gave a viability, T/C [19] of 2.03%, a viability, T/C [20] of 1.38% and a viability, T/C [21] of 1.73%. For the same compound, the viability, T/C [22] was 1.56%, the viability, T/C [23] was 1.8% and the viability, T/C [24] was 2%. The viability, T/C [25] was 0.89%, the viability, T/C [26] was 1.08% and the viability, T/C [27] was 0.76%. For the same compound, the viability, T/C [28] was 1.05%, the viability, T/C [29] was 0.74% and the viability, T/C [30] was 0.87%. It also gave a viability, T/C [31] of 0.16%, a viability, T/C [32] of 0.22% and a viability, T/C [33] of 0.23%. For the same compound, the viability, T/C [34] was 0.22%, the viability, T/C [35] was 0.3% and the viability, T/C [36] was 0.31%.
